Assay results reported in PubChem BioAssay AID1845195 (Molecular Pharmacology Branch, DTP, NCI, 2023).
Values joined by “and” are separate entries in the source; they are usually repeats but may differ in a detail not shown here. Identical values can stand only once.

System: 156681-154-R-J1 tumor spheroid viability
Test: Anticancer human tumor 156681-154-R-J1 patient-derived melanoma cell line growth inhibition
Settings: spheroids with HUVEC and MSC; for viability, T/C: stronger effect = lower value
Method in brief: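 Single agents and combinations were tested on spheroids built from tumor cells plus HUVEC and hMSC, at half-log dilutions starting at or near clinical Cmax, else 10 microM; final DMSO 0.25% (v/v).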
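Further: spheroids exposed to compounds for 7 days before readout.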
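Wherever viability, T/C is given: percent of vehicle control viability where 100% = DMSO-treated spheroids.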

COc1cc(C)[nH]c(=O)c1CN1CCc2c(Cl)cc(C(OC)C3COC3)c(Cl)c2C1=O (centres undefined) + Cn1nnc2c(C(N)=O)ncn2c1=O
IC50 (curve of first compound, second compound 1 µM): > 10 µM | IC50 (curve of first compound, second compound 3.16 µM): > 10 µM | IC50 (curve of first compound, second compound 10 µM): > 10 µM | IC50 (curve of first compound, second compound 31.6 µM): > 10 µM | IC50 (curve of first compound, second compound 100 µM): > 10 µM | viability, T/C (second compound 1 µM, first compound 0.0316 µM): 115% | viability, T/C (second compound 1 µM, first compound 0.1 µM): 103% | viability, T/C (second compound 1 µM, first compound 0.316 µM): 116% | viability, T/C (second compound 1 µM, first compound 1 µM): 115% | viability, T/C (second compound 1 µM, first compound 3.16 µM): 81.2% | viability, T/C (second compound 1 µM, first compound 10 µM): 88.5% | viability, T/C (second compound 3.16 µM, first compound 0.0316 µM): 107% | viability, T/C (second compound 3.16 µM, first compound 0.1 µM): 144% | viability, T/C (second compound 3.16 µM, first compound 0.316 µM): 90.7% | viability, T/C (second compound 3.16 µM, first compound 1 µM): 74.9% | viability, T/C (second compound 3.16 µM, first compound 3.16 µM): 127% | viability, T/C (second compound 3.16 µM, first compound 10 µM): 130% | viability, T/C (second compound 10 µM, first compound 0.0316 µM): 84.5% | viability, T/C (second compound 10 µM, first compound 0.1 µM): 81% | viability, T/C (second compound 10 µM, first compound 0.316 µM): 77.7% | viability, T/C (second compound 10 µM, first compound 1 µM): 75.2% | viability, T/C (second compound 10 µM, first compound 3.16 µM): 98.7% | viability, T/C (second compound 10 µM, first compound 10 µM): 67% | viability, T/C (second compound 31.6 µM, first compound 0.0316 µM): 70.2% | viability, T/C (second compound 31.6 µM, first compound 0.1 µM): 56.7% | viability, T/C (second compound 31.6 µM, first compound 0.316 µM): 60.4% | viability, T/C (second compound 31.6 µM, first compound 1 µM): 58.4% | viability, T/C (second compound 31.6 µM, first compound 3.16 µM): 54% | viability, T/C (second compound 31.6 µM, first compound 10 µM): 65.7% | viability, T/C (second compound 100 µM, first compound 0.0316 µM): 45% | viability, T/C (second compound 100 µM, first compound 0.1 µM): 66% | viability, T/C (second compound 100 µM, first compound 0.316 µM): 51.7% | viability, T/C (second compound 100 µM, first compound 1 µM): 62.9% | viability, T/C (second compound 100 µM, first compound 3.16 µM): 68.7% | viability, T/C (second compound 100 µM, first compound 10 µM): 61.4%

COc1ccc([C@@H](O)c2cc(-c3ncnc4cc(N5CCOCC5)ccc34)c(F)cc2Cl)nn1
viability, T/C (compound 0.0316 µM): 95.2% and 80.1% and 80.3% | viability, T/C (compound 0.1 µM): 99.7% and 89.8% and 88% | viability, T/C (compound 0.316 µM): 88% and 84.6% and 86.1% | viability, T/C (compound 1 µM): 71.3% and 63.9% and 76.9% | viability, T/C (compound 3.16 µM): 59.8% and 60.9% and 55.3% | viability, T/C (compound 10 µM): 46.2% and 62.8% and 43.4% | IC50 (curve of compound): 7.33 µM and > 10 µM and 5.22 µM

COc1cc(C)[nH]c(=O)c1CN1CCc2c(Cl)cc(C(OC)C3COC3)c(Cl)c2C1=O (centres undefined) + COc1cc2c(cc1O)CCNC21CSC2c3c(OC(C)=O)c(C)c4c(c3C(COC1=O)N1C(O)C3Cc5cc(C)c(OC)c(O)c5C(C21)N3C)OCO4
IC50 (curve of first compound, second compound 30 pM): > 10 µM | IC50 (curve of first compound, second compound 94.9 pM): > 10 µM | IC50 (curve of first compound, second compound 0.0003 µM): > 10 µM | IC50 (curve of first compound, second compound 0.000949 µM): < 0.0316 µM | IC50 (curve of first compound, second compound 0.003 µM): < 0.0316 µM | viability, T/C (second compound 30 pM, first compound 0.0316 µM): 88.8% | viability, T/C (second compound 30 pM, first compound 0.1 µM): 112% | viability, T/C (second compound 30 pM, first compound 0.316 µM): 94.9% | viability, T/C (second compound 30 pM, first compound 1 µM): 93.3% | viability, T/C (second compound 30 pM, first compound 3.16 µM): 92.6% | viability, T/C (second compound 30 pM, first compound 10 µM): 120% | viability, T/C (second compound 94.9 pM, first compound 0.0316 µM): 90.9% | viability, T/C (second compound 94.9 pM, first compound 0.1 µM): 98.3% | viability, T/C (second compound 94.9 pM, first compound 0.316 µM): 106% | viability, T/C (second compound 94.9 pM, first compound 1 µM): 116% | viability, T/C (second compound 94.9 pM, first compound 3.16 µM): 106% | viability, T/C (second compound 94.9 pM, first compound 10 µM): 98.1% | viability, T/C (second compound 0.0003 µM, first compound 0.0316 µM): 77.9% | viability, T/C (second compound 0.0003 µM, first compound 0.1 µM): 82.3% | viability, T/C (second compound 0.0003 µM, first compound 0.316 µM): 87.7% | viability, T/C (second compound 0.0003 µM, first compound 1 µM): 80.1% | viability, T/C (second compound 0.0003 µM, first compound 3.16 µM): 73.3% | viability, T/C (second compound 0.0003 µM, first compound 10 µM): 67.2% | viability, T/C (second compound 0.000949 µM, first compound 0.0316 µM): 6.81% | viability, T/C (second compound 0.000949 µM, first compound 0.1 µM): 5.99% | viability, T/C (second compound 0.000949 µM, first compound 0.316 µM): 5.88% | viability, T/C (second compound 0.000949 µM, first compound 1 µM): 5.47% | viability, T/C (second compound 0.000949 µM, first compound 3.16 µM): 3.42% | viability, T/C (second compound 0.000949 µM, first compound 10 µM): 2.93% | viability, T/C (second compound 0.003 µM, first compound 0.0316 µM): 0.33% | viability, T/C (second compound 0.003 µM, first compound 0.1 µM): 0.34% | viability, T/C (second compound 0.003 µM, first compound 0.316 µM): 0.33% | viability, T/C (second compound 0.003 µM, first compound 1 µM): 0.41% | viability, T/C (second compound 0.003 µM, first compound 3.16 µM): 0.38% | viability, T/C (second compound 0.003 µM, first compound 10 µM): 0.48%

CNCc1ccc(-c2cc(-c3nc(-c4ccc(S(=O)(=O)C(C)C)cc4)cnc3N)on2)cc1
viability, T/C (compound 0.00949 µM): 96.4% and 93.6% and 109% | viability, T/C (compound 0.03 µM): 103% and 118% and 115% | viability, T/C (compound 0.0949 µM): 95.8% and 90.1% and 96.7% | viability, T/C (compound 0.3 µM): 89% and 71.3% and 84.3% | viability, T/C (compound 0.949 µM): 59.4% and 53.5% and 57.1% | viability, T/C (compound 3 µM): 24.5% and 15.9% and 19.6% | IC50 (curve of compound): 1.29 µM and 0.931 µM and 1.17 µM
